# Source: US10975080B2, “Compounds and compositions for inhibiting the activity of SHP2” (NOVARTIS AG, priority 2015, dated 2021)
# Biological target: SHP2 (Homo sapiens (Human), UniProt Q06124)
# Assay: SHP2 Allosteric Inhibition Assay
# Format: biochemical
# Settings: 0.5 nM SHP2 with 0.5 μM peptide IRS1_pY1172(dPEG8)pY1222; surrogate substrate DiFMUP; 25° C.; read-out: SHP2 IC50
# Source text: SHP2 Allosteric Inhibition Assay
# SHP2 is allosterically activated through binding of bis-tyrosyl-phosphorylated peptides to its Src Homology 2 (SH2) domains. The latter activation step leads to the release of the auto-inhibitory interface of SHP2, which in turn renders the SHP2 protein tyrosine phosphatase (PTP) active and available for substrate recognition and reaction catalysis. The catalytic activity of SHP2 was monitored using the surrogate substrate DiFMUP in a prompt fluorescence assay format.
# After 30-60 minutes incubation at 25° C., the surrogate substrate DiFMUP (Invitrogen, cat #D6567) was added to the reaction and incubated at 25° C. for 30 minutes. […] The inhibitor dose response curves were analyzed using normalized IC50 regression curve fitting with control based normalization.
row,IC50 [µM],SMILES
1,0.037,"Cc1nc(N)ccc1-c1n[nH]c2nc(N3CCC4(CC3)CO[C@@H](C)[C@H]4N)n(C)c(=O)c12 [Example 47, 3-(6-amino-2-methylpyridin-3-yl)-6-((3S,4S)-4-amino-3-methyl-2-oxa-8-azaspiro[4.5]decan-8-yl)-5-methyl-1,5-dihydro-4H-pyrazolo[3,4-d]pyrimidin-4-one]"
2,0.016,"Cc1nc(N)ccc1-c1n[nH]c2nc(N3CCC4(CC3)C[C@@H](C)C[C@H]4N)n(C)c(=O)c12 [Example 48, 3-(6-amino-2-methylpyridin-3-yl)-6-((1R,3R)-1-amino-3-methyl-8-azaspiro[4.5]decan-8-yl)-5-methyl-1,5-dihydro-4H-pyrazolo[3,4-d]pyrimidin-4-one]"
3,0.009,"Cc1nc(N)ccc1-c1n[nH]c2nc(N3CCC4(CC3)CC(F)(F)C[C@H]4N)n(C)c(=O)c12 [Example 49, (R)-3-(6-amino-2-methylpyridin-3-yl)-6-(1-amino-3,3-difluoro-8-azaspiro[4.5]decan-8-yl)-5-methyl-1,5-dihydro-4H-pyrazolo[3,4-d]pyrimidin-4-one]"
4,0.035,"Cn1c(N2CCC3(CC2)CC(F)(F)C[C@H]3N)nc2[nH]nc(-c3ccnc(NC4CC4)c3Cl)c2c1=O [Example 50, (R)-6-(1-amino-3,3-difluoro-8-azaspiro[4.5]decan-8-yl)-3-(3-chloro-2-(cyclopropylamino)pyridin-4-yl)-5-methyl-1,5-dihydro-4H-pyrazolo[3,4-d]pyrimidin-4-one]"
5,0.014,"Cn1c(N2CCC3(CC2)CC(F)(F)C[C@H]3N)nc2[nH]nc(-c3ccncc3)c2c1=O [Example 51, (R)-6-(1-amino-3,3-difluoro-8-azaspiro[4.5]decan-8-yl)-5-methyl-3-(pyridin-4-yl)-1,5-dihydro-4H-pyrazolo[3,4-d]pyrimidin-4-one]"
6,0.023,"C[C@@H]1OCC2(CCN(c3nc4[nH]nc(-c5ccc(N)nc5Cl)c4c(=O)n3C)CC2)[C@@H]1N [Example 52, 3-(6-amino-2-chloropyridin-3-yl)-6-((3S,4S)-4-amino-3-methyl-2-oxa-8-azaspiro[4.5]decan-8-yl)-5-methyl-1,5-dihydro-4H-pyrazolo[3,4-d]pyrimidin-4-one]"
7,0.036,"Cc1nc(N)ccc1-c1n[nH]c2nc(N3CCC4(CC3)C[C@@H](C(F)(F)F)C[C@H]4N)n(C)c(=O)c12 [Example 53, 3-(6-amino-2-methylpyridin-3-yl)-6-((1R,3R)-1-amino-3-(trifluoromethyl)-8-azaspiro[4.5]decan-8-yl)-5-methyl-1,5-dihydro-4H-pyrazolo[3,4-d]pyrimidin-4-one]"
8,0.021,"Cn1c(N2CCC3(CC2)C[C@@H](C(F)(F)F)C[C@H]3N)nc2[nH]nc(-c3ccncc3)c2c1=O [Example 54, 6-((1R,3R)-1-amino-3-(trifluoromethyl)-8-azaspiro[4.5]decan-8-yl)-5-methyl-3-(pyridin-4-yl)-1,5-dihydro-4H-pyrazolo[3,4-d]pyrimidin-4-one]"
9,0.083,"C[C@@H]1OCC2(CCN(c3nc4[nH]nc(-c5cccc(N)c5)c4c(=O)n3C)CC2)[C@@H]1N [Example 55, 6-((3S,4S)-4-amino-3-methyl-2-oxa-8-azaspiro[4.5]decan-8-yl)-3-(3-aminophenyl)-5-methyl-1,5-dihydro-4H-pyrazolo[3,4-d]pyrimidin-4-one]"
10,0.095,"C[C@@H]1OCC2(CCN(c3nc4[nH]nc(-c5ccc6c(c5)CCO6)c4c(=O)n3C)CC2)[C@@H]1N [Example 56, 6-((3S,4S)-4-amino-3-methyl-2-oxa-8-azaspiro[4.5]decan-8-yl)-3-(2,3-dihydrobenzofuran-5-yl)-5-methyl-1,5-dihydro-4H-pyrazolo[3,4-d]pyrimidin-4-one]"
11,0.011,"C[C@@H]1OCC2(CCN(c3nc4[nH]nc(-c5ccc(F)cc5)c4c(=O)n3C)CC2)[C@@H]1N [Example 57, 6-((3S,4S)-4-amino-3-methyl-2-oxa-8-azaspiro[4.5]decan-8-yl)-3-(4-fluorophenyl)-5-methyl-1,5-dihydro-4H-pyrazolo[3,4-d]pyrimidin-4-one]"
12,0.011,"C[C@@H]1OCC2(CCN(c3nc4[nH]nc(-c5ccc(F)c(F)c5)c4c(=O)n3C)CC2)[C@@H]1N [Example 58, 6-((3S,4S)-4-amino-3-methyl-2-oxa-8-azaspiro[4.5]decan-8-yl)-3-(3,4-difluorophenyl)-5-methyl-1,5-dihydro-4H-pyrazolo[3,4-d]pyrimidin-4-one]"
13,0.013,"COc1ccc(-c2n[nH]c3nc(N4CCC5(CC4)CO[C@@H](C)[C@H]5N)n(C)c(=O)c23)cc1F [Example 59, 6-((3S,4S)-4-amino-3-methyl-2-oxa-8-azaspiro[4.5]decan-8-yl)-3-(3-fluoro-4-methoxyphenyl)-5-methyl-1,5-dihydro-4H-pyrazolo[3,4-d]pyrimidin-4-one]"
14,0.013,"C[C@@H]1OCC2(CCN(c3nc4[nH]nc(-c5cccc(F)c5F)c4c(=O)n3C)CC2)[C@@H]1N [Example 60, 6-((3S,4S)-4-amino-3-methyl-2-oxa-8-azaspiro[4.5]decan-8-yl)-3-(2,3-difluorophenyl)-5-methyl-1,5-dihydro-4H-pyrazolo[3,4-d]pyrimidin-4-one]"
15,0.014,"C[C@@H]1OCC2(CCN(c3nc4[nH]nc(-c5cccc(F)c5)c4c(=O)n3C)CC2)[C@@H]1N [Example 61, 6-((3S,4S)-4-amino-3-methyl-2-oxa-8-azaspiro[4.5]decan-8-yl)-3-(3-fluorophenyl)-5-methyl-1,5-dihydro-4H-pyrazolo[3,4-d]pyrimidin-4-one]"
16,0.017,"C[C@@H]1OCC2(CCN(c3nc4[nH]nc(-c5cc(F)ccc5F)c4c(=O)n3C)CC2)[C@@H]1N [Example 62, 6-((3S,4S)-4-amino-3-methyl-2-oxa-8-azaspiro[4.5]decan-8-yl)-3-(2,5-difluorophenyl)-5-methyl-1,5-dihydro-4H-pyrazolo[3,4-d]pyrimidin-4-one]"
17,0.023,"C[C@@H]1OCC2(CCN(c3nc4[nH]nc(-c5ccccc5F)c4c(=O)n3C)CC2)[C@@H]1N [Example 63, 6-((3S,4S)-4-amino-3-methyl-2-oxa-8-azaspiro[4.5]decan-8-yl)-3-(2-fluorophenyl)-5-methyl-1,5-dihydro-4H-pyrazolo[3,4-d]pyrimidin-4-one]"
18,0.024,"COc1ccc(-c2n[nH]c3nc(N4CCC5(CC4)CO[C@@H](C)[C@H]5N)n(C)c(=O)c23)cn1 [Example 64, 6-((3S,4S)-4-amino-3-methyl-2-oxa-8-azaspiro[4.5]decan-8-yl)-3-(6-methoxypyridin-3-yl)-5-methyl-1,5-dihydro-4H-pyrazolo[3,4-d]pyrimidin-4-one]"
19,0.038,"C[C@@H]1OCC2(CCN(c3nc4[nH]nc(-c5cc(F)cc(F)c5)c4c(=O)n3C)CC2)[C@@H]1N [Example 65, 6-((3S,4S)-4-amino-3-methyl-2-oxa-8-azaspiro[4.5]decan-8-yl)-3-(3,5-difluorophenyl)-5-methyl-1,5-dihydro-4H-pyrazolo[3,4-d]pyrimidin-4-one]"
20,0.091,"COc1ccccc1-c1n[nH]c2nc(N3CCC4(CC3)CO[C@@H](C)[C@H]4N)n(C)c(=O)c12 [Example 66, 6-((3S,4S)-4-amino-3-methyl-2-oxa-8-azaspiro[4.5]decan-8-yl)-3-(2-methoxyphenyl)-5-methyl-1,5-dihydro-4H-pyrazolo[3,4-d]pyrimidin-4-one]"
21,0.096,"Cc1ncccc1-c1n[nH]c2nc(N3CCC4(CC3)CO[C@@H](C)[C@H]4N)n(C)c(=O)c12 [Example 67, 6-((3S,4S)-4-amino-3-methyl-2-oxa-8-azaspiro[4.5]decan-8-yl)-5-methyl-3-(2-methylpyridin-3-yl)-1,5-dihydro-4H-pyrazolo[3,4-d]pyrimidin-4-one]"
22,0.025,"COc1cccc(-c2n[nH]c3nc(N4CCC5(CC4)COC[C@H]5N)n(C)c(=O)c23)c1Cl [Example 68, (S)-6-(4-amino-2-oxa-8-azaspiro[4.5]decan-8-yl)-3-(2-chloro-3-methoxyphenyl)-5-methyl-1,5-dihydro-4H-pyrazolo[3,4-d]pyrimidin-4-one]"
23,0.039,"Cn1c(N2CCC3(CC2)COC[C@H]3N)nc2[nH]nc(-c3ccncc3)c2c1=O [Example 69, (S)-6-(4-amino-2-oxa-8-azaspiro[4.5]decan-8-yl)-5-methyl-3-(pyridin-4-yl)-1,5-dihydro-4H-pyrazolo[3,4-d]pyrimidin-4-one]"
24,0.008,"C[C@@H]1OCC2(CCN(c3nc4[nH]nc(-c5ccncc5)c4c(=O)n3C)CC2)[C@@H]1N [Example 70, 6-((3S,4S)-4-amino-3-methyl-2-oxa-8-azaspiro[4.5]decan-8-yl)-5-methyl-3-(pyridin-4-yl)-1,5-dihydro-4H-pyrazolo[3,4-d]pyrimidin-4-one]"
25,0.022,"C[C@@H]1OCC2(CCN(c3nc4[nH]nc(-c5ccnc(N(C)C)c5Cl)c4c(=O)n3C)CC2)[C@@H]1N [Example 71, 6-((3S,4S)-4-amino-3-methyl-2-oxa-8-azaspiro[4.5]decan-8-yl)-3-(3-chloro-2-(dimethylamino)pyridin-4-yl)-5-methyl-1,5-dihydro-4H-pyrazolo[3,4-d]pyrimidin-4-one]"
26,0.047,"CCNc1nccc(-c2n[nH]c3nc(N4CCC5(CC4)CO[C@@H](C)[C@H]5N)n(C)c(=O)c23)c1Cl [Example 72, 6-((3S,4S)-4-amino-3-methyl-2-oxa-8-azaspiro[4.5]decan-8-yl)-3-(3-chloro-2-(ethylamino)pyridin-4-yl)-5-methyl-1,5-dihydro-4H-pyrazolo[3,4-d]pyrimidin-4-one]"
27,0.028,"C[C@H]1C[C@@H](N)C2(CCN(c3nc4[nH]nc(-c5ccnc(N(C)C)c5Cl)c4c(=O)n3C)CC2)C1 [Example 73, 6-((1R,3R)-1-amino-3-methyl-8-azaspiro[4.5]decan-8-yl)-3-(3-chloro-2-(dimethylamino)pyridin-4-yl)-5-methyl-1,5-dihydro-4H-pyrazolo[3,4-d]pyrimidin-4-one]"
